Values quoted from earlier work in US20250114367A1, “METHOD OF TREATING HAIR LOSS DISORDERS” (Sun Pharmaceutical Industries, Inc., priority 2023, published 2025).

System: subjects with AA
Settings: ritlecitinib 50 mg; up to 48 weeks; FIG. 13C; cited from earlier work

In the case of `C=CC(=O)N1C[C@H](Nc2ncnc3[nH]ccc23)CC[C@@H]1C` [ritlecitinib], the “proportion of participants achieving SALT ≤20” value is listed as ≤ 50%.
